Values of other authors in patent US20240327780A1 (priority 2023, published 2024).
Structures can show the parent of a compound that is named as a salt.

Tested on: SARS-CoV-2 nsp14

Row | Compound | inhibition of nsp14 in fluorescence-based screen
1 | Clc1ccc2nsnc2c1NC1=NCCN1 [tizanidine hydrochloride] | selective inhibitors
2 | Fc1ccc(C(c2ccc(F)cc2)N2CCN(C/C=C/c3ccccc3)CC2)cc1 [flunarizine dihydrochloride] | selective inhibitors
